From patent publication US7638623B2, “Galactoside inhibitors of galectins” (Forskarpatent I SYD AB, priority 2004, dated 2009)

What was measured:
[1] = target: T1, galectin-3 (Homo sapiens, UniProt P17931); experiment: fluorescence polarization-based galectin-3 inhibition assay; assay type: binding; conditions: read-out: Calculated Kd
T1 construct: made in house; host or cells: Escherichia coli
Description: NMR-spectra were recorded with a Bruker DRX-400 instrument. Chemical shifts are given in ppm, with reference to internal residual solvent peaks. Chemical shifts and coupling constants were obtained from ^1H-NMR and proton resonances were assigned from COSY experiments. High-resolution FAB mass spectra (HRMS) were recorded with a JEOL SX-120 instrument. Fluorescence polarization experiments were performed on a PolarStar instrument (BMG, Offenburg; Germany). Column chromatography was performed on SiO2 (Matrex, 60 Å, 35-70 μm, Grace Amicon) and TLC was carried out on SiO2 60 F254 (Merck) with detection under UV light and developed with aqueous sulfuric acid. Concentrations were made using rotary evaporation with bath temperature at or below 40° C. CH2Cl2 and CH3CN were dried by distillation from CaH2.
To 100 μL of galectin-3 (1 μM) and a fluorescent probe (2-(fluorescein-5/6-yl-carbonyl)-aminoethyl 4-O-[3-O-(4-methoxylbenzyl)-β-D-galactopyranosyl]-β-D-glucopyranoside, 0.1 μM) were added inhibitor solution (3.2-80 μM, 100 μL), the plate was incubated under slow rotary shaking in the dark for 5 minutes, and fluorescence polarization measured at room temperature. The fluorescence was measured from above in 96 well microtiter plates (black polystyrene, Costar, Corning, N.Y.) using a PolarStar instrument (BMG, Offenburg; Germany). Control wells containing only fluorescent probe or fluorescein were included. All dilutions and measurements were done in PBS.

[2] = system: galectins; conditions: cited from earlier work

T1 sequence (P17931 whole entry): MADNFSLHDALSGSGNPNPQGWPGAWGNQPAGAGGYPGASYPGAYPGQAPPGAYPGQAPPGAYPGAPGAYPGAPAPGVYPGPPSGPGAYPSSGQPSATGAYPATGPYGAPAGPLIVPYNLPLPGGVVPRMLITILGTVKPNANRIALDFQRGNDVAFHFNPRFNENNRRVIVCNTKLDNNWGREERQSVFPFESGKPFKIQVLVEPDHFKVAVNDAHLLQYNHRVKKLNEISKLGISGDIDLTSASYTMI

Row | Kd [1] | Compound | further results
1 | 0.02 µM | COc1cc(OC)cc(C(=O)NC2C(O)[C@H](S[C@@H]3OC(CO)[C@H](O)C(NC(=O)c4cc(OC)cc(OC)c4)C3O)OC(CO)[C@@H]2O)c1 (stereo partly drawn) [Compound 19, Bis-[3-deoxy-(3,5-dimethoxybenzamido)-β-D-galactopyranosyl]sulfane] | –
2 | 0.05 µM | O=C(N[C@H]1[C@@H](O)[C@@H](CO)O[C@@H](S[C@@H]2O[C@H](CO)[C@H](O)[C@H](NC(=O)c3ccc([N+](=O)[O-])cc3)[C@H]2O)[C@@H]1O)c1ccc([N+](=O)[O-])cc1 [Compound 20, Bis-[3-deoxy-3-(4-nitrobenzamido)-β-D-galactopyranosyl]sulfane] | –
3 | 0.03 µM | O=C(N[C@H]1[C@@H](O)[C@@H](CO)O[C@@H](S[C@@H]2O[C@H](CO)[C@H](O)[C@H](NC(=O)c3ccc4ccccc4c3)[C@H]2O)[C@@H]1O)c1ccc2ccccc2c1 [Compound 21, Bis-[3-deoxy-3-(2-naphthamido)-β-D-galactopyranosyl]sulfane] | –
4 | 52 µM | CO[C@@H]1OC(CO)[C@@H](O[C@@H]2OC(CO)[C@H](O)C(O)C2O)C(O)C1NC(C)=O (stereo partly drawn) [Compound 22, methyl β-glycoside of N-acetyllactosamine, reference compound] | –

The next lines start with the molecule.

Row | Compound | Kd [1] | further results
5 | O=C(N[C@H]1[C@@H](O)[C@@H](CO)O[C@@H](S[C@@H]2O[C@H](CO)[C@H](O)[C@H](NC(=O)c3ccccc3)[C@H]2O)[C@@H]1O)c1ccccc1 [Compound 17, Bis-(3-deoxy-3-benzamido-β-D-galactopyranosyl) sulfane] | 1.44 µM | –
6 | O=C[C@H](O)[C@@H](O)[C@@H](O)[C@H](O)CO [D-galactose] | – | affinity, times lower than lactose ([2]; relative to lactose): 50-100 times
7 | OC[C@H]1O[C@@H](O[C@H]2[C@H](O)[C@@H](O)C(O)O[C@@H]2CO)[C@H](O)[C@@H](O)[C@H]1O (stereo partly shown) [lactose] | – | Kd ([2]; all galectins): 500 to 1000 µM
